Measured values taken from BigSolDB 2.1.

CC(=O)O[C@H]1CC[C@@]2(C)C(=CC[C@@H]3[C@@H]2CC[C@]2(C)C(C(C)=O)=CC[C@@H]32)C1
Conditions	solubility (mole fraction)
in acetone, 278.55 K	0.00427
in acetone, 281.35 K	0.0048
in acetone, 284.75 K	0.00538
in acetone, 288.65 K	0.00622
in acetone, 291.75 K	0.00678
in acetone, 293.95 K	0.00731
in acetone, 296.75 K	0.008
in acetone, 299.05 K	0.00875
in acetone, 301.55 K	0.00955
in acetone, 304.25 K	0.0105
in cyclohexane, 291.95 K	0.00212
in cyclohexane, 300.25 K	0.00314
in cyclohexane, 302.75 K	0.00363
in cyclohexane, 305.75 K	0.00426
in cyclohexane, 309.25 K	0.0049
in cyclohexane, 312.95 K	0.00574
in cyclohexane, 315.9 K	0.00662
in cyclohexane, 320.15 K	0.00767
in cyclohexane, 322.95 K	0.00878
in cyclohexane, 327.85 K	0.0112
in cyclohexane, 332.25 K	0.0135
in cyclohexane, 336.45 K	0.0162
in cyclohexane, 340.35 K	0.019
in ethanol, 285 K	0.00103
in ethanol, 289.85 K	0.00128
in ethanol, 292.6 K	0.00144
in ethanol, 294.95 K	0.00162
in ethanol, 297.65 K	0.00185
in ethanol, 300.95 K	0.0021
in ethanol, 304.55 K	0.0024
in ethanol, 307.55 K	0.00277
in ethanol, 310.55 K	0.00319
in ethanol, 314.15 K	0.00371
in ethanol, 317.55 K	0.00432
in ethanol, 321.35 K	0.00503
in ethanol, 324.55 K	0.00583
in ethanol, 327.05 K	0.0065
in methanol, 282.75 K	0.000402
in methanol, 286.85 K	0.000491
in methanol, 291.95 K	0.000632
in methanol, 295.15 K	0.000779
in methanol, 299.95 K	0.000965
in methanol, 303.85 K	0.00112
in methanol, 309.25 K	0.00142
in methanol, 312.15 K	0.0016
in methanol, 315.55 K	0.00185
in methanol, 318.35 K	0.00215
in methanol, 320.05 K	0.00231
